Assay: Henry solubility constant Hcp at 298.15 K (mol/(m3 Pa))
[1] = reference: Bowden et al. (1998a)
[2] = reference: Buttery et al. (1965)
[3] = reference: Wetlaufer et al. (1964)
[4] = reference: Holzwarth et al. (1984)
[5] = reference: Bakierowska and Trzeszczyński (2003)
[6] = reference: Boggs and Buck (1958)
[7] = reference: Dohányosová et al. (2004)
[8] = reference: Hawthorne et al. (1985)
[9] = reference: Christie and Crisp (1967)
[10] = reference: Schuhfried et al. (2011)

[Ar] [argon]
Henry solubility constant Hcp (reference: Ashton et al. (1968)): 1.4e-05 | Henry solubility constant Hcp (reference: Cosgrove and Walkley (1981)): 1.4e-05 | Henry solubility constant Hcp (reference: Crovetto et al. (1982)): 1.4e-05 | Henry solubility constant Hcp (reference: Friedman (1954)): 1.4e-05 | Henry solubility constant Hcp (reference: Krause and Benson (1989)): 1.4e-05 | Henry solubility constant Hcp (reference: Lannung (1930)): 1.4e-05 | Henry solubility constant Hcp (reference: Morrison and Johnstone (1954)): 1.3e-05 | Henry solubility constant Hcp (reference: Murray and Riley (1970)): 1.4e-05 | Henry solubility constant Hcp (reference: Park et al. (1982)): 1.4e-05 | Henry solubility constant Hcp (reference: Potter II and Clynne (1978)): 1.4e-05 | Henry solubility constant Hcp (reference: Rettich et al. (1992)): 1.4e-05 | Henry solubility constant Hcp (reference: Shoor et al. (1969)): 1.4e-05 | Henry solubility constant Hcp (reference: Winkler (1906)): 1.5e-05 | Henry solubility constant Hcp (reference: von Antropoff (1910)): 1.6e-05

O=Cc1ccccc1 [benzaldehyde]
Henry solubility constant Hcp (reference: Allen et al. (1998)): 0.35 | Henry solubility constant Hcp (reference: Allou et al. (2011)): 0.32 | Henry solubility constant Hcp (reference: Souchon et al. (2004)): 0.34

[2H]c1c([2H])c([2H])c([2H])c([2H])c1[2H] [benzene-d6]
Henry solubility constant Hcp (reference: Wasik and Tsang (1970)): 0.0016

O=C(O)c1ccccc1 [benzenecarboxylic acid]
Henry solubility constant Hcp (reference: Li et al. (2007)): 290

N#Cc1ccccc1 [benzenenitrile]
Henry solubility constant Hcp (reference: Lee et al. (2013)): 0.29

c1ccc(-c2ccccc2)cc1 [biphenyl]
Henry solubility constant Hcp (reference: Mackay et al. (1979)): 0.024

CC(CCl)OC(C)CCl (stereo not given) [bis-(2-chloroisopropyl) ether]
Henry solubility constant Hcp (reference: Kawamoto and Urano (1989)): 0.42

O=C(O)CBr [bromoethanoic acid]
Henry solubility constant Hcp [1]: 1500

CCCC=O [butanal]
Henry solubility constant Hcp [2]: 0.064 | Henry solubility constant Hcp (reference: Ji and Evans (2007)): 0.089

CCCC [butane]
Henry solubility constant Hcp (reference: Ben-Naim and Battino (1985)): 1.2e-05 | Henry solubility constant Hcp (reference: Carroll et al. (1997)): 1.3e-05 | Henry solubility constant Hcp (reference: McAuliffe (1963)): 1.1e-05 | Henry solubility constant Hcp (reference: Morrison and Billett (1952)): 1.1e-05 | Henry solubility constant Hcp [3]: 1.3e-05

COC(=O)CCC(=O)OC [butanedioic acid, dimethyl ester]
Henry solubility constant Hcp (reference: Katrib et al. (2003)): 30

CCCCOC(C)=O [butyl ethanoate]
Henry solubility constant Hcp (reference: Fenclová et al. (2014)): 0.035 | Henry solubility constant Hcp (reference: Ioffe et al. (1984)): 0.035 | Henry solubility constant Hcp (reference: Kieckbusch and King (1979b)): 0.035

CCCCOC=O [butyl methanoate]
Henry solubility constant Hcp (reference: Wittig et al. (2001)): 0.019

CCCCc1ccccc1 [butylbenzene]
Henry solubility constant Hcp (reference: Perlinger et al. (1993)): 0.00062

c1ccc2c(c1)[nH]c1ccccc12 [carbazole]
Henry solubility constant Hcp (reference: Odabasi et al. (2006)): 93

CNC(=O)Oc1cccc2c1OC(C)(C)C2 [carbofuran]
Henry solubility constant Hcp (reference: Mabury and Crosby (1996)): > 99

S=C=S [carbon disulfide]
Henry solubility constant Hcp (reference: De Bruyn et al. (1995b)): 0.00054 | Henry solubility constant Hcp (reference: Elliott (1989)): 0.00062

O=C=C=C=O [carbon suboxide]
Henry solubility constant Hcp (reference: Keßel et al. (2017)): 0.011

COC(=O)OC [carbonic acid, dimethyl ester]
Henry solubility constant Hcp (reference: Böhme et al. (2008)): 0.16

NCl [chloramine]
Henry solubility constant Hcp [4]: 0.92

[O][Cl+][O-] [chlorine dioxide]
Henry solubility constant Hcp (reference: Bigorgne (1947)): 0.0066 | Henry solubility constant Hcp (reference: Holst (1944)): 0.0097 | Henry solubility constant Hcp (reference: Ishi (1958)): 0.011 | Henry solubility constant Hcp (reference: Kepinski and Trzeszczynski (1964)): 0.01 | Henry solubility constant Hcp (reference: Taube and Dodgen (1949)): 0.01

ClC1CCCCC1 [chlorocyclohexane]
Henry solubility constant Hcp [5]: 0.0028

FC(F)Cl [chlorodifluoromethane]
Henry solubility constant Hcp [6]: 0.00035 | Henry solubility constant Hcp (reference: Chang and Criddle (1995)): 0.00017 | Henry solubility constant Hcp (reference: Maaßen (1995)): 0.00035 | Henry solubility constant Hcp (reference: Reichl (1995)): 0.00035 | Henry solubility constant Hcp (reference: Zheng et al. (1997)): 0.00034

CCCl [chloroethane]
Henry solubility constant Hcp (reference: Chen et al. (2012)): 0.00076 | Henry solubility constant Hcp (reference: Gossett (1987)): 0.00088 | Henry solubility constant Hcp (reference: Maaßen (1995)): 0.00089 | Henry solubility constant Hcp (reference: Reichl (1995)): 0.00093

FCCl [chlorofluoromethane]
Henry solubility constant Hcp [6]: 0.0015

FC(F)(F)C(F)(F)Cl [chloropentafluoroethane]
Henry solubility constant Hcp (reference: Reichl (1995)): 3.1e-06

FC(F)(F)Cl [chlorotrifluoromethane]
Henry solubility constant Hcp (reference: Park et al. (1982)): 7.8e-06 | Henry solubility constant Hcp (reference: Reichl (1995)): 8.9e-06 | Henry solubility constant Hcp (reference: Scharlin and Battino (1994)): 9e-06 | Henry solubility constant Hcp (reference: Scharlin and Battino (1995)): 9e-06

C[C@@H]1CCCC[C@@H]1C [cis-1,2-dimethylcyclohexane]
Henry solubility constant Hcp [7]: 2.7e-05

ClC1=C(Cl)[C@]2(Cl)[C@@H]3[C@@H](Cl)[C@@H](Cl)C[C@@H]3[C@@]1(Cl)C2(Cl)Cl [cis-chlordane]
Henry solubility constant Hcp (reference: Jantunen and Bidleman (2006)): 0.037

C1CCCCC1 [cyclohexane]
Henry solubility constant Hcp (reference: Tsonopoulos and Wilson (1983)): 5.4e-05 | Henry solubility constant Hcp (reference: Tucker et al. (1981)): 5.4e-05

O=C1CCCCC1 [cyclohexanone]
Henry solubility constant Hcp [8]: 0.82

C1=CCCCC1 [cyclohexene]
Henry solubility constant Hcp [5]: 0.00033 | Henry solubility constant Hcp (reference: Nielsen et al. (1994)): 0.00025

C1CCCCCCC1 [cyclooctane]
Henry solubility constant Hcp [7]: 6.9e-05

C1=C\CCCCCC/1 [cyclooctene]
Henry solubility constant Hcp [7]: 0.00021

O=C1CCCC1 [cyclopentanone]
Henry solubility constant Hcp [8]: 0.82

C1=CCCC1 [cyclopentene]
Henry solubility constant Hcp [5]: 0.00023

C1CC1 [cyclopropane]
Henry solubility constant Hcp (reference: Saidman et al. (1966)): 0.00011

Brc1c(Br)c(Br)c(Oc2c(Br)c(Br)c(Br)c(Br)c2Br)c(Br)c1Br [decabromodiphenyl ether]
Henry solubility constant Hcp (reference: Cetin and Odabasi (2005)): 18 | Henry solubility constant Hcp (reference: Long et al. (2017)): 18

C[Si](C)(C)O[Si](C)(C)O[Si](C)(C)O[Si](C)(C)C [decamethyltetrasiloxane]
Henry solubility constant Hcp (reference: Xu and Kropscott (2014)): 1.4e-07

CCCCCCCCCC=O [decanal]
Henry solubility constant Hcp [2]: 0.17

[2H][2H] [deuterium]
Henry solubility constant Hcp (reference: Muccitelli and Wen (1978)): 7.9e-06

O=C(O)C(Br)Br [dibromoethanoic acid]
Henry solubility constant Hcp [1]: 2200

CCCCNCCCC [dibutylamine]
Henry solubility constant Hcp [9]: 0.11

ClNCl [dichloramine]
Henry solubility constant Hcp [4]: 0.28

O=C(O)C(Cl)Cl [dichloroethanoic acid]
Henry solubility constant Hcp [1]: 1200

CCSCC [diethyl sulfide]
Henry solubility constant Hcp [10]: 0.0035

FCF [difluoromethane]
Henry solubility constant Hcp (reference: Anderson (2011)): 0.00068 | Henry solubility constant Hcp (reference: Kutsuna (2017)): 0.00064 | Henry solubility constant Hcp (reference: Maaßen (1995)): 0.00069 | Henry solubility constant Hcp (reference: Miguel et al. (2000)): 0.0003 | Henry solubility constant Hcp (reference: Reichl (1995)): 0.00069

NCCOCCO [diglycolamine]
Henry solubility constant Hcp (reference: Nguyen (2013)): 6100

COCOC [dimethoxymethane]
Henry solubility constant Hcp (reference: Ondo and Dohnal (2007)): 0.063

CNC [dimethylamine]
Henry solubility constant Hcp [9]: 0.56

CN(C)CCOCCO [dimethylaminoethoxyethanol]
Henry solubility constant Hcp (reference: Nguyen (2013)): 4300

[CH3][Hg][CH3] [dimethylmercury]
Henry solubility constant Hcp (reference: Talmi and Mesmer (1975)): 0.0013

CC(C)(C)C [dimethylpropane]
Henry solubility constant Hcp (reference: Shoor et al. (1969)): 5.5e-06 | Henry solubility constant Hcp [3]: 6.3e-06

CS(C)=O [dimethylsulfoxide]
Henry solubility constant Hcp (reference: Lee and Zhou (1994)): > 9900 | Henry solubility constant Hcp (reference: Watts and Brimblecombe (1987)): 940

C1CN(CCOCCN2CCOCC2)CCO1 [dimorpholinodiethyl ether]
Henry solubility constant Hcp (reference: Nguyen (2013)): 1800

FN(F)N(F)F [dinitrogen tetrafluoride]
Henry solubility constant Hcp (reference: Dean et al. (1973)): 8.4e-06

CCCSSCCC [dipropyl disulfide]
Henry solubility constant Hcp [10]: 0.0024

CCCOCCC [dipropyl ether]
Henry solubility constant Hcp (reference: Hartkopf and Karger (1973)): 0.0022

CCCNCCC [dipropylamine]
Henry solubility constant Hcp [9]: 0.19 | Henry solubility constant Hcp (reference: Leng et al. (2015a)): 0.12

CCN [ethanamine]
Henry solubility constant Hcp (reference: Butler and Ramchandani (1935)): 0.99 | Henry solubility constant Hcp [9]: 0.8

CCS [ethanethiol]
Henry solubility constant Hcp (reference: Jou et al. (2021)): 0.0024 | Henry solubility constant Hcp (reference: Vitenberg et al. (1975)): 0.0022

— Sander's compilation of Henry's law constants
